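The compound was tested at five concentrations on cells cultured in 96-well plates, with a 48-hour exposure period. Here, GI50 denotes the concentration required for 50% inhibition of growth.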 The source made the active and inactive calls. No stated cut-off is given here; in the data, active = GI50 up to about 1.1 µM and inactive = higher.
What was measured:
Test in all cases: NCI anticancer screen, dose series, 48 h
TK-10 = test system: TK-10
UACC-62 = test system: UACC-62
KM-20L2 = test system: KM-20L2
OVCAR-8 = test system: OVCAR-8
SF-539 = test system: SF-539
ACHN = test system: ACHN
U-251 = test system: U-251
SNB-78 = test system: SNB-78
LXFL 529 = test system: LXFL 529
SK-OV-3 = test system: SK-OV-3
SNB-19 = test system: SNB-19
HOP-92 = test system: HOP-92
HOP-62 = test system: HOP-62
DMS-114 = test system: DMS-114
HL-60 = test system: HL-60
EKVX = test system: EKVX
Malme-3M = test system: Malme-3M
DLD-1 = test system: DLD-1
MOLT-4 = test system: MOLT-4
RPMI-8226 = test system: RPMI-8226
OVCAR-4 = test system: OVCAR-4
M14 = test system: M14
OVCAR-5 = test system: OVCAR-5
SF-295 = test system: SF-295
SW-620 = test system: SW-620
SK-MEL-28 = test system: SK-MEL-28
SN12C = test system: SN12C
UO-31 = test system: UO-31
CAKI-1 = test system: CAKI-1
SR = test system: SR
K562 = test system: K562
NCI-H23 = test system: NCI-H23
IGROV-1 = test system: IGROV-1
SK-MEL-5 = test system: SK-MEL-5
SF-268 = test system: SF-268
COLO 205 = test system: COLO 205
786-0 = test system: 786-0
OVCAR-3 = test system: OVCAR-3
SK-MEL-2 = test system: SK-MEL-2
XF498 = test system: XF498
HCT-116 = test system: HCT-116
UACC-257 = test system: UACC-257
M19-MEL = test system: M19-MEL
KM12 = test system: KM12
HCT-15 = test system: HCT-15
NCI-H226 = test system: NCI-H226
HT-29 = test system: HT-29
SNB-75 = test system: SNB-75
A549 = test system: A549
NCI-H522 = test system: NCI-H522
LOX IMVI = test system: LOX IMVI
CCRF-CEM = test system: CCRF-CEM
RXF 393 = test system: RXF 393
HCC 2998 = test system: HCC 2998
NCI-H460 = test system: NCI-H460
BT-549 = test system: BT-549
Hs-578T = test system: Hs-578T
T47D = test system: T47D
MDA-MB-231 = test system: MDA-MB-231
MDA-MB-435 = test system: MDA-MB-435
PC-3 = test system: PC-3
NCI/ADR-RES = test system: NCI/ADR-RES
MDA-N = test system: MDA-N
A498 = test system: A498
DU-145 = test system: DU-145
MCF7 = test system: MCF7

SMILES: O=C(O)/C=C\C(=O)Nc1ccc(S(=O)(=O)c2ccc(NC(=O)/C=C\C(=O)O)cc2)cc1
- GI50 (TK-10): > 100 µM (inactive)
- GI50 (UACC-62): > 100 µM (inactive)
- GI50 (KM-20L2): > 100 µM (inactive)
- GI50 (OVCAR-8): > 100 µM (inactive)
- GI50 (SF-539): > 100 µM (inactive)
- GI50 (ACHN): > 100 µM (inactive)
- GI50 (U-251): > 100 µM (inactive)
- GI50 (SNB-78): > 100 µM (inactive)
- GI50 (LXFL 529): > 100 µM (inactive)
- GI50 (SK-OV-3): > 100 µM (inactive)
- GI50 (SNB-19): > 100 µM (inactive)
- GI50 (HOP-92): > 100 µM (inactive)
- GI50 (HOP-62): > 100 µM (inactive)
- GI50 (DMS-114): > 100 µM (inactive)
- GI50 (HL-60): > 100 µM (inactive)
- GI50 (EKVX): > 100 µM (inactive)
- GI50 (Malme-3M): > 100 µM (inactive)
- GI50 (DLD-1): > 100 µM (inactive)
- GI50 (MOLT-4): > 100 µM (inactive)
- GI50 (RPMI-8226): > 100 µM (inactive)
- GI50 (OVCAR-4): > 100 µM (inactive)
- GI50 (M14): > 100 µM (inactive)
- GI50 (OVCAR-5): > 100 µM (inactive)
- GI50 (SF-295): > 100 µM (inactive)
- GI50 (SW-620): > 100 µM (inactive)
- GI50 (SK-MEL-28): > 100 µM (inactive)
- GI50 (SN12C): > 100 µM (inactive)
- GI50 (UO-31): > 100 µM (inactive)
- GI50 (CAKI-1): > 100 µM (inactive)
- GI50 (SR): > 100 µM (inactive)
- GI50 (K562): > 100 µM (inactive)
- GI50 (NCI-H23): > 100 µM (inactive)
- GI50 (IGROV-1): > 100 µM (inactive)
- GI50 (SK-MEL-5): > 100 µM (inactive)
- GI50 (SF-268): > 100 µM (inactive)
- GI50 (COLO 205): > 100 µM (inactive)
- GI50 (786-0): > 100 µM (inactive)
- GI50 (OVCAR-3): > 100 µM (inactive)
- GI50 (SK-MEL-2): > 100 µM (inactive)
- GI50 (XF498): > 100 µM (inactive)
- GI50 (HCT-116): > 100 µM (inactive)
- GI50 (UACC-257): > 100 µM (inactive)
- GI50 (M19-MEL): 45 µM (inactive)
- GI50 (KM12): > 100 µM (inactive)
- GI50 (HCT-15): > 100 µM
- GI50 (NCI-H226): > 100 µM (inactive)
- GI50 (HT-29): > 100 µM (inactive)
- GI50 (SNB-75): > 100 µM (inactive)
- GI50 (A549): > 100 µM (inactive)
- GI50 (NCI-H522): > 100 µM (inactive)
- GI50 (LOX IMVI): > 100 µM (inactive)
- GI50 (CCRF-CEM): > 100 µM (inactive)

SMILES: CC(C)C(C)C(C)(C)P(C)(C)=O (stereo not drawn)
- GI50 (TK-10): > 100 µM (inactive)
- GI50 (UACC-62): > 100 µM (inactive)
- GI50 (KM-20L2): > 100 µM (inactive)
- GI50 (SF-539): > 100 µM (inactive)
- GI50 (ACHN): > 100 µM (inactive)
- GI50 (RXF 393): > 100 µM (inactive)
- GI50 (U-251): > 100 µM (inactive)
- GI50 (SNB-78): > 100 µM (inactive)
- GI50 (LXFL 529): > 100 µM (inactive)
- GI50 (SK-OV-3): > 100 µM (inactive)
- GI50 (SNB-19): > 100 µM (inactive)
- GI50 (HOP-62): > 100 µM (inactive)
- GI50 (DMS-114): > 100 µM (inactive)
- GI50 (EKVX): > 100 µM (inactive)
- GI50 (Malme-3M): > 100 µM (inactive)
- GI50 (DLD-1): > 100 µM (inactive)
- GI50 (OVCAR-4): > 100 µM (inactive)
- GI50 (M14): > 100 µM (inactive)
- GI50 (OVCAR-5): > 100 µM (inactive)
- GI50 (SK-MEL-28): > 100 µM (inactive)
- GI50 (SN12C): > 100 µM (inactive)
- GI50 (UO-31): > 100 µM (inactive)
- GI50 (NCI-H23): > 100 µM (inactive)
- GI50 (HCC 2998): > 100 µM (inactive)
- GI50 (SF-268): > 100 µM (inactive)
- GI50 (OVCAR-3): > 100 µM (inactive)
- GI50 (NCI-H460): > 100 µM (inactive)
- GI50 (SK-MEL-2): > 100 µM (inactive)
- GI50 (XF498): > 100 µM (inactive)
- GI50 (HCT-116): > 100 µM (inactive)
- GI50 (UACC-257): > 100 µM (inactive)
- GI50 (M19-MEL): > 100 µM (inactive)
- GI50 (KM12): > 100 µM (inactive)
- GI50 (HCT-15): > 100 µM
- GI50 (NCI-H226): > 100 µM (inactive)
- GI50 (HT-29): > 100 µM (inactive)
- GI50 (SNB-75): > 100 µM (inactive)
- GI50 (LOX IMVI): > 100 µM (inactive)

SMILES: CC1(C)[C@@H]2C[C@H]1c1cnc(-c3ccccn3)cc1[C@H]2C(O)[C@@H]1c2cc(-c3ccccn3)ncc2[C@H]2C[C@@H]1C2(C)C (stereo partly drawn)
- GI50 (TK-10): 2.14 µM (inactive)
- GI50 (BT-549): 0.184 µM (active)
- GI50 (Hs-578T): 6.93 µM (inactive)
- GI50 (UACC-62): 0.247 µM (active)
- GI50 (OVCAR-8): 0.124 µM (active)
- GI50 (SF-539): 0.214 µM (active)
- GI50 (ACHN): 0.113 µM (active)
- GI50 (RXF 393): 0.198 µM (active)
- GI50 (U-251): 0.0741 µM (active)
- GI50 (SK-OV-3): 0.0867 µM (active)
- GI50 (SNB-19): 0.301 µM (active)
- GI50 (HOP-92): 0.322 µM (active)
- GI50 (T47D): 0.505 µM (active)
- GI50 (HOP-62): 0.073 µM (active)
- GI50 (HL-60): 0.0212 µM (active)
- GI50 (EKVX): 0.165 µM (active)
- GI50 (Malme-3M): 0.218 µM (active)
- GI50 (MDA-MB-231): 0.338 µM (active)
- GI50 (MOLT-4): 0.0285 µM (active)
- GI50 (RPMI-8226): 0.0893 µM (active)
- GI50 (MDA-MB-435): 1 µM (active)
- GI50 (OVCAR-4): 0.0618 µM (active)
- GI50 (M14): 0.082 µM (active)
- GI50 (OVCAR-5): 1.11 µM (active)
- GI50 (SF-295): 0.0721 µM (active)
- GI50 (SW-620): 0.17 µM (active)
- GI50 (SK-MEL-28): 0.47 µM (active)
- GI50 (PC-3): 0.332 µM (active)
- GI50 (SN12C): 0.0547 µM (active)
- GI50 (UO-31): 0.0785 µM (active)
- GI50 (NCI/ADR-RES): 0.101 µM (active)
- GI50 (CAKI-1): 0.106 µM (active)
- GI50 (SR): 0.0309 µM (active)
- GI50 (K562): 0.124 µM (active)
- GI50 (NCI-H23): 0.189 µM (active)
- GI50 (IGROV-1): 0.043 µM (active)
- GI50 (SK-MEL-5): 0.0461 µM (active)
- GI50 (HCC 2998): 0.993 µM (active)
- GI50 (SF-268): 0.126 µM (active)
- GI50 (MDA-N): 0.627 µM (active)
- GI50 (COLO 205): 0.161 µM (active)
- GI50 (786-0): 0.0451 µM (active)
- GI50 (OVCAR-3): 0.0281 µM (active)
- GI50 (NCI-H460): 0.0472 µM (active)
- GI50 (SK-MEL-2): 0.428 µM (active)
- GI50 (A498): 0.491 µM (active)
- GI50 (HCT-116): 0.0374 µM (active)
- GI50 (UACC-257): 0.396 µM (active)
- GI50 (KM12): 0.769 µM (active)
- GI50 (HCT-15): 0.0718 µM
- GI50 (NCI-H226): < 0.0504 µM (active)
- GI50 (HT-29): 0.112 µM (active)
- GI50 (DU-145): 0.125 µM (active)
- GI50 (MCF7): 0.0796 µM (active)
- GI50 (SNB-75): 0.773 µM (active)
- GI50 (A549): 0.154 µM (active)
- GI50 (NCI-H522): 0.142 µM (active)
- GI50 (LOX IMVI): 0.0272 µM (active)
- GI50 (CCRF-CEM): < 0.0222 µM (active)

SMILES: COc1ccc(/C=C\c2cc(OC)c(OC)c(OC)c2)cc1O [COMBRETASTATIN A4]
- GI50 (TK-10): 0.204 µM (active)
- GI50 (BT-549): > 10 µM (inactive)
- GI50 (Hs-578T): 0.583 µM (active)
- GI50 (KM-20L2): 1.61 µM (inactive)
- GI50 (T47D): 41 µM (inactive)
- GI50 (EKVX): 1.22 µM (inactive)
- GI50 (OVCAR-5): 0.34 µM (active)
- GI50 (HT-29): 1.72 µM (inactive)
- GI50 (DU-145): 0.01 µM (active)

Source: ChEMBL document CHEMBL1201862, “PubChem BioAssay data set” (2004)
